From BindingDB's records for patent US10626112 (Ea Pharma, 2020)
pIC50: −log10 of the molar value.

molecular target: Transient receptor potential cation channel subfamily A member 1 (Homo sapiens, UniProt O75762); assay: Measurement of TRPA1 Antagonist Activity
Description: The test substance was dissolved in dimethyl sulfoxide and serially diluted with an assay buffer containing 0.1% bovine serum albumin (1×HBSS, 20 mM HEPES, pH 7.2) to a 4.8-fold concentration of the evaluation concentration. Allylisothiocyanate, which is a known TRPA1 activator, was dissolved in dimethyl sulfoxide to 100 mM, and further diluted 5-fold (100 μM) of the final concentration, like the test substance.

Transient receptor potential cation channel subfamily A member 1, sequence (O75762 whole entry): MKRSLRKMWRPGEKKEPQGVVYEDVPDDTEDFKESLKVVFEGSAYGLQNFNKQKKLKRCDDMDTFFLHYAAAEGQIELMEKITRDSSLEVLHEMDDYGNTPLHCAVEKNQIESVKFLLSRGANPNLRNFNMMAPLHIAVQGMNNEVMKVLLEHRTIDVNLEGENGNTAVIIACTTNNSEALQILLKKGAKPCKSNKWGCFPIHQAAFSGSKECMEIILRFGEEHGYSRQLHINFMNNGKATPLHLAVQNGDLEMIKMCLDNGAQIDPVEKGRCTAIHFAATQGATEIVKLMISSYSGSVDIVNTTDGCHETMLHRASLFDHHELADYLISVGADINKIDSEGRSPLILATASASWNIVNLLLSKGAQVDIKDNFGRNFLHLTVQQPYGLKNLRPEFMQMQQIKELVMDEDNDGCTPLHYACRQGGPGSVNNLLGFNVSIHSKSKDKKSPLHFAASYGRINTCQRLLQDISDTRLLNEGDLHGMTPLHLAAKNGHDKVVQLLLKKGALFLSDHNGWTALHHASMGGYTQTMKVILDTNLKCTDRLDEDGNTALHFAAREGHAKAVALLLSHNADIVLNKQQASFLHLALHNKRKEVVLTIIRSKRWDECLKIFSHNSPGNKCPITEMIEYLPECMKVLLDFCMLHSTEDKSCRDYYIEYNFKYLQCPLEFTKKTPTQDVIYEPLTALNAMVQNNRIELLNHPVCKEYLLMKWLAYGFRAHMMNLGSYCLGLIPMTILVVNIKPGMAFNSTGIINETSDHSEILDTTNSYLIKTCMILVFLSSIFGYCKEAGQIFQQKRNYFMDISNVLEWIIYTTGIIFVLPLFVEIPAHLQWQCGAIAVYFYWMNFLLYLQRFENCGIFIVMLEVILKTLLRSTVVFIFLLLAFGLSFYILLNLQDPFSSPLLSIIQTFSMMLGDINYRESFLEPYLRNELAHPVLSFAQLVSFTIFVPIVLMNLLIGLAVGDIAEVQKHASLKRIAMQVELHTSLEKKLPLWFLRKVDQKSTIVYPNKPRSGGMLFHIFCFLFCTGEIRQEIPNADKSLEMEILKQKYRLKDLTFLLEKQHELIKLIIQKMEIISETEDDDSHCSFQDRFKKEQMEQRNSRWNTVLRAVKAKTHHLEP

| Compound | pIC50 |
| --- | --- |
| O=C(CN(Cc1cnccn1)S(=O)(=O)c1cc2cc(F)ccc2o1)NCc1cc(-c2ccc(C(F)(F)F)cc2)ncn1 [US10626112, Example 361] | 6.33 |
| CC(C)OCCN(CC(=O)NCc1cc(-c2ccc(C(F)(F)F)cc2)ncn1)S(=O)(=O)c1cc2cc(F)ccc2o1 [US10626112, Example 358] | 6.96 |
| O=C(NCc1cccc(OCc2ccc(N3CCOCC3)nc2)c1)[C@@H]1CCCN1S(=O)(=O)c1cc2cc(F)ccc2o1 [US10626112, Example 22] | 6.96 |
| CC(C)OCCN(CC(=O)NCc1cc(-c2ccc(C(F)(F)F)cn2)ccn1)S(=O)(=O)c1cc2cc(F)ccc2o1 [US10626112, Example 356] | 6.72 |
| O=C(CN(Cc1ncco1)S(=O)(=O)c1cc2cc(F)ccc2o1)NCc1cc(-c2ccc(C(F)(F)F)cn2)ccn1 [US10626112, Example 351] | 6.00 |
| CC(C)(C)OC[C@H](NS(=O)(=O)c1cc2cc(F)ccc2o1)C(=O)NCc1cc(-c2ccc(C(F)(F)F)cc2)ncn1 [US10626112, Example 415] | 6.39 |
| O=C(NCc1ccnc(-c2ccc(COCC(F)(F)F)nc2)c1)[C@@H]1CCCN1S(=O)(=O)c1cc2ccccc2o1 [US10626112, Example 331] | 6.77 |

Further compounds by rising pIC50, results first:

| pIC50 | Compound |
| --- | --- |
| 6.20 | O=C(CN(Cc1ccccc1)S(=O)(=O)c1cc2cc(F)ccc2o1)NCc1cc(-c2ccc(C(F)(F)F)cn2)ccn1 [US10626112, Example 350] |
| 6.39 | O=C(CN(Cc1ccccc1)S(=O)(=O)c1cc2cc(F)ccc2o1)NCc1cc(-c2ccc(C(F)(F)F)cc2)ncn1 [US10626112, Example 352] |
| 6.42 | O=C(CN(Cc1ncco1)S(=O)(=O)c1cc2cc(F)ccc2o1)NCc1cc(-c2ccc(C(F)(F)F)cc2)ncn1 [US10626112, Example 354] |
| 6.72 | O=C(CN(CC1CCNC1)S(=O)(=O)c1cc2cc(F)ccc2o1)NCc1cc(-c2ccc(C(F)(F)F)cc2)ncn1 (centres undefined) [US10626112, Example 425] |
| 7.00 | COCCN(CC(=O)NCc1cc(-c2ccc(C(F)(F)F)cn2)ccn1)S(=O)(=O)c1cc2cc(F)ccc2o1 [US10626112, Example 355] |
| 7.13 | O=C(NCc1cc(-c2ccc(C(F)(F)F)cc2)ncn1)[C@@H]1CCCN1S(=O)(=O)c1cc2ccncc2o1 [US10626112, Example 347] |
| 7.62 | O=C(NCc1cccc(CSc2ccc(C(F)(F)F)cc2)c1)[C@@H]1CCCN1S(=O)(=O)c1cc2ccccc2o1 [US10626112, Example 299] |
